In series [1] the test system is βAP25-35-induced calcium influx, hNT cells. Put plainly: βAP25-35-induced calcium influx in hNT cells: effect of channel antagonists and decoy peptides. The class given is cell-based, human. Conditions: for effect on increase in internal calcium concentration due to βAP25-35: decoy peptide mixed with βAP25-35 at ratio 1:1 (20 μM+20 μM), hNT cells; for effect on βAP25-35 calcium influx at molar ratio: filtered stocks.

Series [2] deals with βAP1-42-induced calcium influx, hNT cells. Briefly: βAP1-42 (Aβ1-42) aggregate-induced calcium influx in hNT cells: effect of decoy peptides and channel blockers. The class given is cell-based, human. Conditions: for inhibition of calcium influx caused by aggregated Aβ1-42: summary statement, concentration not given; for effect on βAP1-42 calcium influx: βAP1-42 25 μM coincubated with equimolar decoy peptide at 37° C. for 44 hours.

The subject of series [3] is hNT cells. Briefly: Membrane depolarization of hNT cells by aggregated Aβ1-42 (DiBAC4(3) fluorescence). The class given is cell-based, human. Conditions: for inhibition of membrane depolarization by aggregated Aβ1-42: simultaneous presence, separately or together, summary statement. As to the method:
Changes in membrane potential were measured using the fluorescent potentiometric probe DiBAC4(3), (Molecular Probes, Inc., Eugene, Oreg.). This dye, bis-(1,3-dibutylbarbituric acid)trimethine oxonol, detects membrane depolarization, because it enters depolarized cells and binds to intracellular proteins or membranes. […] Hyperpolarization results in extrusion of the anionic dye and thus a decrease in fluorescence. Our measurements use two dyes, fura-2 and DiBAC4(3), since these dyes have excitation wavelengths that are far apart, but have similar emission wavelengths. DiBAC4(3) was added to fura-2AM loaded hNT cells at a concentration of 100 nM in Tyr2Ca. Rapidly alternating measurements of fura-2 (excited at 340 & 380 nm) and DiBAC4(3) (excited at 490 nm) were performed using emission at 516 nm. Both dyes were measured using the special “Fura2-Fluo3” filter set 7400 from Chroma Technology (Brattleboro, Vt.), a Zeiss Axiovert 100 inverted microscope and a photometry system (model “Delta Ram” from Photon Technology International, Inc., Monmouth Junction, N.J.).
The bis-oxonol dye DiBAC4(3) was used as an indicator of transmembrane electrical potential changes (Langheinrich and Daut, J. Physiol. 502:397-408, 1997) when our hNT cells were treated with, for example, the β-amyloid peptide Aβ1-42. The use of this dye enabled us to monitor groups of 5-15 neurons, rather than single cells as would be the case with patch clamping methods. We expected great variability from cell to cell, as was found in our earlier patch clamp work (Sanderson et al., Brain Res. 744:7-14, 1997). The method has been used by many laboratories for the determination of membrane potentials in different cell types. Fluorescence is increased upon membrane depolarization as more dye enters the cytosol, resulting in increased binding to proteins (Braiuner et al., Biochim. Biophys. Acta 771:[…], 1984). Partitioning of bis-oxonol dye between the plasma membrane and the cytosol follows the Nernst equation (Langheinrich and Daut, 1997). Unless otherwise indicated, all measurements were carried out in Tyrode's solution containing 2 mM Ca.
We calibrated the gross fluorescence as a function of membrane potential by treating a culture of hNT neurons, bathed in Tyrode's 2Ca buffer with the usual 3 mM K^+, containing 97 nM DiBAC4(3), with Tyrode's 2Ca buffer containing 40 mM KCl. We measured the gross fluorescence at excitation=490 nm and emission=510 nm for the depolarization by KCl and for depolarization by the Aβ1-42 peptide. We used the formula proposed by Langheinrich and Daut, 1997: % ΔF=(1−Fmin/Fmax)*100=ΔEMmV
where Fmin=fluorescence before treatment, Fmax=fluorescence during treatment, ΔEM mV is the change in membrane potential brought about by the treatment. The calculation based on the expected depolarization by changing from 3 mM KCl to 40 MM KCl gave a value of ΔEM=3.8 mV/1% ΔF.
Groups of hNT neuronal cells (5-17) were exposed to Aβ1-42 (20 μM) that had been incubated at 37° C. for 48 hours; 97 nM DiBAC4(3) was present. Fluorescence was measured as described above; Ex=490 nm, Em=510 nm.

Series [4] concerns hNT cells. Briefly: Internal calcium concentration [Ca2+]int in hNT cells (fura-2) on exposure to β-amyloid peptide or test agent alone. The class given is cell-based, human. Particulars: hNT cells, decoy peptide alone at 20 μM, filtered stocks, Tyrode's/2 mM Ca.
The format of series [5] is physicochemical. Conditions: water.
Series [6] concerns voltage-gated calcium channels. Put plainly: Previous patch-clamp experiments on β-amyloid peptide calcium influx. The class given is cell-based. (In general: In patch-clamp work, channel activity is measured electrically.)
Series [7] deals with T1, βAP25-35 (Homo sapiens, UniProt P05067).
T1 construct: made in house; host or cells: chemical peptide synthesis (BioPolymers Laboratory, MIT), HPLC purified
Put plainly: Aggregation rate of βAP25-35 by light scattering at 500 nm. The class given is biochemical. Particulars: decoy peptide at approximately equimolar concentration, Tyrode's/2 mM Ca^2+, light scattering 500 nm.

Series [8] addresses T2, βAP1-42 (Homo sapiens, UniProt P05067).
T2 construct: βAP1-42 (Aβ1-42); purchased Quality Control Biochemicals; host or cells: synthetic peptide
Briefly: Aggregation rate of βAP1-42 by light scattering at 500 nm. The class given is biochemical. Particulars: decoy peptide at 1:1 molar ratio, Tyrode's/2 mM Ca^2+, light scattering 500 nm.

Setting [9] is: aggregated Aβ1-42 20 μM plus the named addition, [Ca^2+] 2 mM, Na^+.

Entries after “also recorded” stand apart in the source; their conditions may differ. Like-named read-outs stand apart in the source and are kept apart here. Non-standard residues stand in square brackets, D forms with d. Residues, ends and D or L forms follow the SMILES beside them.

T2 sequence (P05067 672-713): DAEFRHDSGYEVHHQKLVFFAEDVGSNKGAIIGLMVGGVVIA

`N#Cc1cc2c(cc1[N+](=O)[O-])=NC(=O)C(=O)N=2` [CNQX, 6-cyano-7-nitroquinoxaline-2,3-dione]: in series [1] (cells first exposed to 21 μM βAP25-35 (270% of control), then βAP25-35 plus CNQX 22 μM), the “[Ca^2+]int when antagonist added after βAP25-35 exposure” value is recorded as “fell to control levels”. The “block of calcium influx into hNT neuronal cells caused by βAP25-35” value in series [1] (concentration not stated) is recorded as “can be blocked”. Moreover, the “effect on βAP25-35-induced calcium influx” value in series [1] (βAP25-35 21 μM, CNQX at 22 μM, applied together) was “completely prevented”. For the same compound, the “effect on calcium influx / cytosolic calcium caused by aggregated Aβ1-42” value in series [2] (hNT cells, aggregated Aβ1-42, 20 μM CNQX added after desensitization) is “completely inhibited; also recorded: lowers the remaining calcium level to the original control value”. Also, the “inhibition of calcium influx caused by aggregated Aβ1-42” value in series [2] is on record as “inhibited”. In series [3] (setting [9]), the “% ΔF in presence of addition” value turned out to be 17.0% and the “Δ EM in presence of addition” value is reported as “+64.6 mV”. Moreover, the “effect on membrane depolarization (DiBAC4(3) fluorescence plateau) by aggregated Aβ1-42” value in series [3] (hNT cells, CNQX (20 μM) added after Aβ1-42aggr) is recorded as “little change in fluorescence; also recorded: remained unchanged; also recorded: did not significantly change fluorescence”. Also, the “inhibition of membrane depolarization by aggregated Aβ1-42” value in series [3] is given as “not inhibited”.

In the case of `CC[C@@H](C)[C@@H](N)C(=O)N[C@H](C)C(=O)N[C@H](C)C(=O)NCC(=O)N[C@@H](C(=O)N[C@@H](C(=O)NCC(=O)NCC(=O)NCC(=O)O)[C@H](C)O)[C@H](C)CC` [DP1, ^+NH3-IAAGITGGG-COO^−] (H-[dI][dA][dA]G[dI][dT]GGG-OH), the “effect of decoy peptide by itself on cytosolic calcium concentrations” value in series [4] was “raise cytosolic calcium concentrations somewhat”. The “effect on increase in internal calcium concentration due to βAP25-35” value in series [1] is reported as “reduced or abolished the increase in the internal calcium concentration”. Besides, the solubility result in series [5] is on record as “water soluble”.

Regarding `NC1=N[C@H](O)[C@H]2[C@H]3O[C@]4(O)O[C@@H]([C@@H](O)[C@@]2(N1)[C@@H]4O)[C@]3(O)CO` [TTX, tetrodotoxin], the “effect on rise in cytosolic calcium caused by aggregated Aβ1-42” value in series [2] is “allowed both membrane depolarization and a rise in cytosolic calcium levels; also recorded: the rise in cytosolic calcium”. Further, in series [3], the “% ΔF in presence of addition” value turned out to be 17.3%; the “effect on membrane depolarization by aggregated Aβ1-42” value is “allowed both membrane depolarization and a rise in cytosolic calcium levels; also recorded: allows both membrane depolarization”; the “Δ EM in presence of addition” value is listed as “+65.7 mV”.

As for `[Cl][Cd][Cl]` [cadmium chloride], the “effect on membrane depolarization by aggregated Aβ1-42” value in series [3] is listed as “did not prevent membrane depolarization”. The “block of β-amyloid peptide calcium influx” value in series [6] is “did not block the calcium influx”.

With D-AP5, the “effect on calcium influx caused by aggregated Aβ1-42” value in series [2] (hNT cells, aggregated 20 μM Aβ1-42, D-AP5 50 μM) is “largely, but not completely, abolished calcium influx; also recorded: does inhibit calcium influx”. In addition, the “inhibition of calcium influx caused by aggregated Aβ1-42” value in series [2] was “inhibited”. In series [3] (setting [9]), the “% ΔF in presence of addition” value was found to be 10.4% and the “Δ EM in presence of addition” value is listed as “+39.5 mV”. In series [3] (hNT cells, D-AP5 50 μM), the “effect on membrane depolarization by aggregated Aβ1-42” value is listed as “did not interfere with the depolarization phenomenon; also recorded: does not block membrane depolarization”. The “inhibition of membrane depolarization by aggregated Aβ1-42” value in series [3] is recorded as “not inhibited”.

With “^+NH3-TVIR^+TIAAA-COO^− (TVIRTIAAA) [DP8]”, the “effect of decoy peptide by itself on cytosolic calcium concentrations” value in series [4] is on record as “no effect on cytosolic calcium concentrations”. In addition, the “effect on βAP25-35 calcium influx at molar ratio” value in series [1] (DP8:βAP25-35 0.2:1 (5 mM DP8+20 mM βAP25-35)) is “modestly reduced”; in series [1] (DP8:βAP25-35 1:1 (10 mM DP8+10 mM βAP25-35)) it was “reduce or abolish the effect of the β-amyloid peptide”; in series [1] (DP8:βAP25-35 2:1 (20 mM DP8+11 mM βAP25-35)), “reduce or abolish the effect of the β-amyloid peptide”. Moreover, in series [1], the “effect on increase in internal calcium concentration due to βAP25-35” value is listed as “reduced or abolished the increase in the internal calcium concentration”. Also, the “effect on βAP1-42 calcium influx” value in series [2] (hNT cells) was “reduced or abolished the effect of βAP1-42 on the calcium influx”. Also, the “effect on aggregation rate of βAP25-35” value in series [7] was “did not reduce the aggregation rate of βAP25-35”.

For the compound “^+NH3.T.P.I.R^+.T.P.A.P.A.COO^− (H-[dT][dP][dI][dR][dT][dP][dA][dP][dA]-OH; also: modified) [DP16]”, in series [2] (hNT cells), the “effect on βAP1-42 calcium influx” value is given as “reduced or abolished the effect of βAP1-42 on the calcium influx”. Further, the “reduction of aggregation rate of βAP1-42” value in series [8] is “about 50%”. Also, in series [7], the “effect on aggregation rate of βAP25-35” value is listed as “reduced the aggregation rate of βAP25-35”.

For the origin of these results see patent publication US6942963B1, “Methods for identifying treatments for neurotoxicity in Alzheimer's disease caused by β-amyloid peptides” (Massachusetts Institute of Technology, priority 1997, dated 2005).
